Assay results from ChEMBL document CHEMBL3045967, “Discovery of imidazole glycerol phosphate dehydratase inhibitors through 3-D database searching” (Bioorg Med Chem Lett, 2002).
Active and inactive are the calls of the source. The calls are words filed in the database; no cut-off is given here.

Key:
[1] = biological target: Histidine biosynthesis bifunctional protein HisB (Escherichia coli O26:H11 str. CFSAN001629, UniProt P06987); assay: (§1) Inhibition of Escherichia coli imidazoleglycerol phosphate dehydratase using imidazole glycerol phosphate as substrate incubated for 30 min prior to substrate addition measured for 16 min by spectrophotometric analysis
[2] = biological target: Histidine biosynthesis bifunctional protein HisB (Escherichia coli O26:H11 str. CFSAN001629) (UniProt P06987); assay: as §1

| SMILES | IC50 [1] [µM] | inhibition [2] |
| --- | --- | --- |
| CCOC(=O)c1[nH]c(C)c(C(=O)OC)c1C | – | inactive |
| O=Cc1[nH]c(C(=O)OCc2ccccc2)c(Cc2ccccc2)c1Cc1ccccc1 | 4 | – |
| CCOC(=O)CCc1c(C(=O)OCC)[nH]c(C=O)c1CC(=O)OCC | 12.6 | – |
| COC(=O)c1[nH]c(C=O)c(C(=O)OC)c1C(C)C | 8.3 | – |
| CCOC(=O)c1[nH]c(C=O)c(C)c1C | 17.6 | – |
| CCc1c(C=O)[nH]c(C(=O)OCc2ccccc2)c1C | 24 | – |
| Cc1c(C=O)[nH]c(C=O)c1C | 7.1 | – |

Next, values leading:

| IC50 [1] [µM] | inhibition [2] | SMILES |
| --- | --- | --- |
| 9.2 | – | CCOC(=O)c1[nH]c(C=O)cc1C |
| 5.1 | – | CCOC(=O)c1[nH]c(C=O)c(C(=O)OCC)c1C |
| 8.9 | – | Cc1c(C=O)[nH]c(C(=O)OCc2ccccc2)c1C |
| 5.6 | – | CCOC(=O)c1[nH]c(C=O)c(C(=O)OCC)c1CC |
